In patent publication US20100137381A1, “ACETAMIDE DERIVATIVES AS POTASSIUM CHANNEL MODULATORS” (NeuroSearch A/S, priority 2007, published 2010):
Blank lines part the entries; values can stand above or below the molecule they belong to.

What was measured:
[1] = target: T1, BK channels heterologously expressed in Xenopus laevis oocytes (Homo sapiens, UniProt Q12791); assay: BK channel activation, two-electrode voltage clamp in Xenopus laevis oocytes; format: cell-based; settings: depolarising step to +20 mV
T1 construct: expressed in transfected cells; host or cells: Xenopus laevis oocytes
T1 sequence (Q12791 whole entry): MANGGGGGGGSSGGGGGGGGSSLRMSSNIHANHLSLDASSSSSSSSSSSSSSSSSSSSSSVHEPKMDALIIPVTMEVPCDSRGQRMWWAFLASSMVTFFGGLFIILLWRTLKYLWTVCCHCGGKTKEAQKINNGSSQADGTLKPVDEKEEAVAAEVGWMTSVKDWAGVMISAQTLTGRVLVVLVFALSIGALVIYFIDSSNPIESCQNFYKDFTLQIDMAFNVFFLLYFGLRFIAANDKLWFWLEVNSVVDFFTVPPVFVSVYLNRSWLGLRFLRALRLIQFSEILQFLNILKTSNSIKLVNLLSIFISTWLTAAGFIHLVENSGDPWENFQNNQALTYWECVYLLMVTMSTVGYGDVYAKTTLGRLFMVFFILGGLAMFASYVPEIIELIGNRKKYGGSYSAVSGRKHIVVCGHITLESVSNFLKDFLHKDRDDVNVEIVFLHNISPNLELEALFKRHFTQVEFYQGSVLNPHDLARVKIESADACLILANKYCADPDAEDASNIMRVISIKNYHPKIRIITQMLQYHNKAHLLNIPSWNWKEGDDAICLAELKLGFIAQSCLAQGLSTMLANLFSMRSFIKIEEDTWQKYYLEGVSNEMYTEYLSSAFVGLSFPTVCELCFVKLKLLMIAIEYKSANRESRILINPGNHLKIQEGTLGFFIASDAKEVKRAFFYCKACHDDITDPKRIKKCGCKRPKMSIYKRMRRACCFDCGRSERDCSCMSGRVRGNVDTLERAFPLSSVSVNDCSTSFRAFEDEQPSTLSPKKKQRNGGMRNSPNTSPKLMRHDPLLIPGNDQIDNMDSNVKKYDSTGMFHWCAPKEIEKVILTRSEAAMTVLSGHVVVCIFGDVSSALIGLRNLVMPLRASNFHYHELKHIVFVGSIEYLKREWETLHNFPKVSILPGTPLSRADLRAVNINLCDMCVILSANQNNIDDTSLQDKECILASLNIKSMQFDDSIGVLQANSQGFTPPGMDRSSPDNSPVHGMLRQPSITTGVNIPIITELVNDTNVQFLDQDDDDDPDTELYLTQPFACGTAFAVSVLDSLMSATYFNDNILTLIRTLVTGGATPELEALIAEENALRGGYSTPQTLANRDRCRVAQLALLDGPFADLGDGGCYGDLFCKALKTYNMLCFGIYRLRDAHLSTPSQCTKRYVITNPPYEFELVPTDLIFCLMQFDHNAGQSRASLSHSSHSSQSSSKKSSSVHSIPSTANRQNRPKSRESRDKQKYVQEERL
Description: In this example the BK channel opening activity of two acetamide derivatives of to the invention, i.e. 2-(3,5-difluoro-phenyl)-N-[3-(5-oxo-4,5-dihydro-[1,2,4]oxadiazol-3-yl)-4′-trifluoromethyl-biphenyl-4-yl]-acetamide (Compound 7), and 2-(3,5-bis-trifluoromethyl-phenyl)-N-[4-bromo-2-(1H-tetrazol-5-yl)-phenyl]-acetamide (Compound 2) herein designated Compound A and Compound B, respectively, is determined using BK channels heterologously expressed in Xenopus laevis oocytes.
The electrical current through the BK channel is measured by conventional two-electrode voltage clamp. BK current is activated by repeated step protocols. In brief, this protocol goes from a resting membrane potential of −40 mV lasting for 5 s to a depolarised step to +20 mV lasting for 1 s. The protocol was repeated continuously.
Having reached a stable current level, Compound A (3 μM) and Compound B (10 μM), respectively, was added. A marked increase in the current activated by depolarisation could be observed. The BK current activity returned to baseline after approximately 30-80 seconds of wash. In summary BK current was increased by 367±92% in the presence of 3 μM of Compound A (n=3, SD value), and 327±88% in the presence of 10 μM of Compound B.

[2] = target: chloride channel (human erythrocyte chloride conductance); assay: In vitro human erythrocyte chloride conductance; format: cell-based; settings: suspensions of human erythrocytes; calculated from dose-response of membrane Cl-conductance (GCl); read-out: KD-value, chloride conductance block
Excerpt: In this example the chloride channel blocking activity of an acetamide derivative representative of the invention, i.e. Compound 3 (2-(4-Chloro-phenyl)-N-[4′-chloro-3-(1H-tetrazol-5-yl)-biphenyl-4-yl]-acetamide), has been determined.
All dose-response experiments were therefore performed by concomitant measurements of conductive netfluxes of Cl^− (JCl) and membrane potentials (Vm) in suspensions of erythrocytes as described by Bennekou et al. (Bennekou P and Christophersen P: Flux ratio of Valinomycin—Mediated K^+Fluxes across the Human Red Cell Membrane in the presence of the Protronophore CCCP; J. Membrane Biol. 1986 93 221-227).
The membrane Cl-conductances (GCl) were calculated according to Hodgkin et al. (Hodgkin A L and Huxley A F: The components of membrane conductance in the giant axon of Loligo; J. Physiol. Lond. 1952 116 449-472) using the following equation: […]
where F is the Faraday constant and ECl is the Nernst potential for the Cl-ion.

BK current increase ([1]; 3 μM compound, n=3, SD value): 367±92%
Structure (SMILES): O=C(Cc1cc(F)cc(F)c1)Nc1ccc(-c2ccc(C(F)(F)F)cc2)cc1-c1noc(=O)[nH]1 [Compound A, 2-(3,5-difluoro-phenyl)-N-[3-(5-oxo-4,5-dihydro-[1,2,4]oxadiazol-3-yl)-4′-trifluoromethyl-biphenyl-4-yl]-acetamide]

BK current increase ([1]; 10 μM compound): 327±88%
Structure (SMILES): O=C(Cc1cc(C(F)(F)F)cc(C(F)(F)F)c1)Nc1ccc(Br)cc1-c1nnn[nH]1 [Compound B, 2-(3,5-Bis-trifluoromethyl-phenyl)-N-[4-bromo-2-(1H-tetrazol-5-yl)-phenyl]-acetamide]

Kd [2]: 90 nM
Structure (SMILES): O=C(Cc1ccc(Cl)cc1)Nc1ccc(-c2ccc(Cl)cc2)cc1-c1nnn[nH]1 [Compound 3, 2-(4-Chloro-phenyl)-N-[4′-chloro-3-(1H-tetrazol-5-yl)-biphenyl-4-yl]-acetamide]
